Test results taken from doi:10.1101/2023.10.20.563248v1 (biorxiv, 2023).

Assays:
Conditions in all cases: 1 µM; inhibitor
ACVRL1 = ACVRL1 (Homo sapiens, UniProt P37023)
AKT1 = AKT1 (Homo sapiens, UniProt P31749)
AurC = AurC (Homo sapiens, UniProt Q9UQB9)
BRK = BRK (Homo sapiens, UniProt Q13882)
BRSK2 = BRSK2 (Homo sapiens, UniProt Q8IWQ3)
BTK = BTK (Homo sapiens, UniProt Q06187)
CDC42BPB = CDC42BPB (Homo sapiens, UniProt Q9Y5S2)
CDK2/CycD1 = CDK2/CycD1 (Homo sapiens, UniProt P24941)
CDK4/CycD3 = CDK4/CycD3 (Homo sapiens, UniProt P11802)
CDK6 = CDK6 (Homo sapiens, UniProt Q00534)
CDK6/CycD2 = CDK6/CycD2 (Homo sapiens, UniProt Q00534)
DAPK3 = DAPK3 (Homo sapiens, UniProt O43293)
EIF2AK3 = EIF2AK3 (Homo sapiens, UniProt Q9NZJ5)
FER = FER (Homo sapiens, UniProt P16591)
INSR = INSR (Homo sapiens, UniProt P06213)
IRAK1 = IRAK1 (Homo sapiens, UniProt P51617)
JAK2 = JAK2 (Homo sapiens, UniProt O60674)
MAP3K10 = MAP3K10 (Homo sapiens, UniProt Q02779)
MEKK3 = MEKK3 (Homo sapiens, UniProt Q99759)
MLK4 = MLK4 (Homo sapiens, UniProt Q5TCX8)
PDGFRa = PDGFRa (Homo sapiens, UniProt P16234)
PKCe = PKCe (Homo sapiens, UniProt Q02156)
PRKG1 = PRKG1 (Homo sapiens, UniProt Q13976)
SYK = SYK (Homo sapiens, UniProt P43405)
TAOK2 = TAOK2 (Homo sapiens, UniProt Q9UL54)
TAOK3 = TAOK3 (Homo sapiens, UniProt Q9H2K8)
VRK2 = VRK2 (Homo sapiens, UniProt Q86Y07)
WNK2 = WNK2 (Homo sapiens, UniProt Q9Y3S1)
ZAK = ZAK (Homo sapiens, UniProt Q9NYL2)
p38a = p38a (Homo sapiens, UniProt Q16539)
p38b = p38b (Homo sapiens, UniProt Q15759)
Sequence of p38b (Q15759 whole entry): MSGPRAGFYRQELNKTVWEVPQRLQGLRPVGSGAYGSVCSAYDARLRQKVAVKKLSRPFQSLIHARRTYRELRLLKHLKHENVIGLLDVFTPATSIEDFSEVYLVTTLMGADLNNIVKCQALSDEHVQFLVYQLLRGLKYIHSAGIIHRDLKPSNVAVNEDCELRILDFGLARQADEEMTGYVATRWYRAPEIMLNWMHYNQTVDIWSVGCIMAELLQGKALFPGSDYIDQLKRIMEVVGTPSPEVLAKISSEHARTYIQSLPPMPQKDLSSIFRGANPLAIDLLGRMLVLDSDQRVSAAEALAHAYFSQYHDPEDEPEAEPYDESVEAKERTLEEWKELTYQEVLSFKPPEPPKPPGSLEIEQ

Sequence of PKCe (Q02156 whole entry): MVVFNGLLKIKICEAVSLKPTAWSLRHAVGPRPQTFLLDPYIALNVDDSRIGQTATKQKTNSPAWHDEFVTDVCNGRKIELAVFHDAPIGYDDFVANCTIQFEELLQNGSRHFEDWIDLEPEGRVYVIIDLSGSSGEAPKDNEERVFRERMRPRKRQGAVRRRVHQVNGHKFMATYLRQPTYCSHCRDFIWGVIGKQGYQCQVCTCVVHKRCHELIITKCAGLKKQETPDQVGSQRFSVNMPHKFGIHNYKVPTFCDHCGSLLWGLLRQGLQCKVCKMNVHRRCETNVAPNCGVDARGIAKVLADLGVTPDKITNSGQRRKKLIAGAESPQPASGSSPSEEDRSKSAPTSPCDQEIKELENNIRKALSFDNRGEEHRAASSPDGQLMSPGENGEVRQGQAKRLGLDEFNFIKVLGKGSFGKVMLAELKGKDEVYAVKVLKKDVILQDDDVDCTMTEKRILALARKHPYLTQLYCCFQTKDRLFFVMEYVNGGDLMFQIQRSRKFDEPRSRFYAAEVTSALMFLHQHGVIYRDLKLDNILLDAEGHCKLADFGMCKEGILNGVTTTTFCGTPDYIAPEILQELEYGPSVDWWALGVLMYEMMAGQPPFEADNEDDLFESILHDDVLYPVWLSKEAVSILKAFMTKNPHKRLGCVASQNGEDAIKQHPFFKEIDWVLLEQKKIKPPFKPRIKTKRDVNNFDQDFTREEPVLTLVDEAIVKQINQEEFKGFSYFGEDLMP
Sequence of PRKG1 (Q13976 whole entry): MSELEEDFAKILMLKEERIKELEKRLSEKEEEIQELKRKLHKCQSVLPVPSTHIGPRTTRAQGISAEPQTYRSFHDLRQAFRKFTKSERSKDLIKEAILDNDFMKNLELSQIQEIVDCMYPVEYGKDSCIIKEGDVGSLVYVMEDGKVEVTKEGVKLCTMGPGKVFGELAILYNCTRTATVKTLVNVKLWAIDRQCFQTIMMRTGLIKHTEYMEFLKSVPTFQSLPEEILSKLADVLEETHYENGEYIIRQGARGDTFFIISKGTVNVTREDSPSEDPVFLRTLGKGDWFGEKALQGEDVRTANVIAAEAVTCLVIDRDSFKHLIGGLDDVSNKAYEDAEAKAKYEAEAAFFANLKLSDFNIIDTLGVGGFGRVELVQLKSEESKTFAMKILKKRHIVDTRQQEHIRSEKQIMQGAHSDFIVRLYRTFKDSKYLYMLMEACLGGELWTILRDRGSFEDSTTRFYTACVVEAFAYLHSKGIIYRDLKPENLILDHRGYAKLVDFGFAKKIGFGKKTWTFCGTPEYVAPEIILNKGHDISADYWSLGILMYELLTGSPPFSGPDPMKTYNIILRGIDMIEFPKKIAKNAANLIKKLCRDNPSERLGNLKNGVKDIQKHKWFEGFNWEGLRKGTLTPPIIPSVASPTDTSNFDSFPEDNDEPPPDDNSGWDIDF
Sequence of JAK2 (O60674 whole entry): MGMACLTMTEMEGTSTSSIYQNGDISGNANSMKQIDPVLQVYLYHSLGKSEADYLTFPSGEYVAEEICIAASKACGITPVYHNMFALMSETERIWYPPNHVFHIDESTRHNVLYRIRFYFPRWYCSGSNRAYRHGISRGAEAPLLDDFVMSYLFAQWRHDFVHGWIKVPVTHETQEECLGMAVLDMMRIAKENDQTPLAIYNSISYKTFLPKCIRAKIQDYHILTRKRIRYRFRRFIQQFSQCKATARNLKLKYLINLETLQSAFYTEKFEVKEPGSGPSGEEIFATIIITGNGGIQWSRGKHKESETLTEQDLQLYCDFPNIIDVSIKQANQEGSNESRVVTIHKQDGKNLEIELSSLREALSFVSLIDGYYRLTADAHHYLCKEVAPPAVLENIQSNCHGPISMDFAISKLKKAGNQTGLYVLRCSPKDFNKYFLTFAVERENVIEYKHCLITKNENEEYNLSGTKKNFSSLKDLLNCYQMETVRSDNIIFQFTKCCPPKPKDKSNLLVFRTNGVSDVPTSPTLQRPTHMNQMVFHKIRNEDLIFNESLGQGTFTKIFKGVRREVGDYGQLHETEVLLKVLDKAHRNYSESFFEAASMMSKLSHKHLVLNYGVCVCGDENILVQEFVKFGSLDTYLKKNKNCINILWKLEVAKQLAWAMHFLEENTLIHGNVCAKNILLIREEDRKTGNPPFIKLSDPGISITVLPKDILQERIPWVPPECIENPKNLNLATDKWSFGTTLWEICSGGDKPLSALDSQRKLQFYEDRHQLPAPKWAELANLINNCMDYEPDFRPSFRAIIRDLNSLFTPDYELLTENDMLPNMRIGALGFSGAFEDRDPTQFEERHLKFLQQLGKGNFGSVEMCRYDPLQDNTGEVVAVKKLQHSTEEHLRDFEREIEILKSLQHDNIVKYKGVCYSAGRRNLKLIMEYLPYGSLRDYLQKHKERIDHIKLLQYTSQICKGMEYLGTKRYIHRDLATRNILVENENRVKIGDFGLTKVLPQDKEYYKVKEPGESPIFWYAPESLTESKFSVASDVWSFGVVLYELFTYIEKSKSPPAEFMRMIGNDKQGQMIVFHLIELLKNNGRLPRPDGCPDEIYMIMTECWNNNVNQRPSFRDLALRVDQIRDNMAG
Sequence of DAPK3 (O43293 whole entry): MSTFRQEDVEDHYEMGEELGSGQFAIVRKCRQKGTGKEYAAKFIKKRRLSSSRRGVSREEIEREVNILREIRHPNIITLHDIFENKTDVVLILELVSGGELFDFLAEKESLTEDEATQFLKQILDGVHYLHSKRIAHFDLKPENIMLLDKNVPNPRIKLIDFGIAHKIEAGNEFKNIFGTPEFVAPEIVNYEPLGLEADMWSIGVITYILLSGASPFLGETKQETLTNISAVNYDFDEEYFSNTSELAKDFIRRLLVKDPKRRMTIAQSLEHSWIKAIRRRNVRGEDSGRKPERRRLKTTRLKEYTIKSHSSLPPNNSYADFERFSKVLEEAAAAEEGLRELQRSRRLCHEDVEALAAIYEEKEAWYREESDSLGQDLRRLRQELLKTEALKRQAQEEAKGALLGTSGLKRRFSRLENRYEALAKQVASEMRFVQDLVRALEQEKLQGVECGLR
Sequence of CDC42BPB (Q9Y5S2 whole entry): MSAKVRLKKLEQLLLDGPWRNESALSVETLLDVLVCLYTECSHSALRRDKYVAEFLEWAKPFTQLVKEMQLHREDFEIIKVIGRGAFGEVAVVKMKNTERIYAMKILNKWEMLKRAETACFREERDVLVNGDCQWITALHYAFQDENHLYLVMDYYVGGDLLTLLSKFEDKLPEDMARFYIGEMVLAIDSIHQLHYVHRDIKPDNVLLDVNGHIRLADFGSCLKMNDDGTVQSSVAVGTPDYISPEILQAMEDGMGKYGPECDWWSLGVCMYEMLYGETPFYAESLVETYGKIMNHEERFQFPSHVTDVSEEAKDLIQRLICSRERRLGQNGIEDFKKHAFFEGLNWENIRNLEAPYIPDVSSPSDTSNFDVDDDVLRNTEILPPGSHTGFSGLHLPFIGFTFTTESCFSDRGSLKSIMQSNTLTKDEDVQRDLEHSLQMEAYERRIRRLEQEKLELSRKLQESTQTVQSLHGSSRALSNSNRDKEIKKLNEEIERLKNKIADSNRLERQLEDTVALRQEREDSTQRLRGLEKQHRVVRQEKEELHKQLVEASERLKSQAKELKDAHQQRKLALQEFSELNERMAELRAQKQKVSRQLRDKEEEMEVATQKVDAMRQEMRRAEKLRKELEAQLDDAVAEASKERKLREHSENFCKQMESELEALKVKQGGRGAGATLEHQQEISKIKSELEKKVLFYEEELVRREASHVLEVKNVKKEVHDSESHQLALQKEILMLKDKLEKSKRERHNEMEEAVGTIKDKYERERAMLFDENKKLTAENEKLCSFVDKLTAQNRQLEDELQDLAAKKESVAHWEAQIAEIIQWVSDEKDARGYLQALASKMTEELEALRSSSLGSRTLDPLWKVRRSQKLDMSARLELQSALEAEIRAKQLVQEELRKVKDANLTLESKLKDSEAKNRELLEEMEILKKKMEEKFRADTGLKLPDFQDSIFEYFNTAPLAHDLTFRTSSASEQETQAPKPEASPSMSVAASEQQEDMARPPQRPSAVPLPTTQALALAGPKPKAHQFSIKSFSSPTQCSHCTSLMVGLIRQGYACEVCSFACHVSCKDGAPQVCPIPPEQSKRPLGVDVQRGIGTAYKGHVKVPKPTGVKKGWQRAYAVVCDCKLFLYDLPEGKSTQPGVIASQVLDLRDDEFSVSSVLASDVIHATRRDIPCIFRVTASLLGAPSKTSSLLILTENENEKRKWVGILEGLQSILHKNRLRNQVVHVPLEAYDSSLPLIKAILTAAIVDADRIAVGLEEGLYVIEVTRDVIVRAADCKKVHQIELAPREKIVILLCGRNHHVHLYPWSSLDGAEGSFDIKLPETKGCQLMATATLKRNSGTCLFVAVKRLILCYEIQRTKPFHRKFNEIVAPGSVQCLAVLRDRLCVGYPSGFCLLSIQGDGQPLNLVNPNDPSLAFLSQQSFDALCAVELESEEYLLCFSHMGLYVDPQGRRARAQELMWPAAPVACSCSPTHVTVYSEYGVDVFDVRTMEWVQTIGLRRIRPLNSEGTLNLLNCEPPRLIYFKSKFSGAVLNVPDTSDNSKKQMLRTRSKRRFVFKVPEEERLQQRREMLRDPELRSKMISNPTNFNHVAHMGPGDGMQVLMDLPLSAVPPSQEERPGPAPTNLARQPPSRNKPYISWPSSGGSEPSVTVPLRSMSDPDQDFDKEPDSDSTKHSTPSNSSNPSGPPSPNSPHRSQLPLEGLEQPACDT

O=C1NCCCCCNc2nc(c3ccccc3n2)Nc2cc1[nH]n2 [21c, (Z)-3^1H-2,5,11-triaza-1(4,2)-quinazolina-3(3,5)-pyrazolacycloundecaphan-4-one]
21c Remaining activity, percent of control [%] (ACVRL1): 91.0% | 21c Remaining activity, percent of control [%] (AKT1): 92.1% | 21c Remaining activity, percent of control [%] (AurC): 90.2% | 21c Remaining activity, percent of control [%] (BRK): 99.3% | 21c Remaining activity, percent of control [%] (BRSK2): 97.8% | 21c Remaining activity, percent of control [%] (BTK): 96.6% | 21c Remaining activity, percent of control [%] (CDC42BPB): 106.6% | 21c Remaining activity, percent of control [%] (CDK2/CycD1): 121.3% | 21c Remaining activity, percent of control [%] (CDK4/CycD3): 111.1% | 21c Remaining activity, percent of control [%] (CDK6): 105.2% | 21c Remaining activity, percent of control [%] (CDK6/CycD2): 85.8% | 21c Remaining activity, percent of control [%] (DAPK3): 107.0% | 21c Remaining activity, percent of control [%] (EIF2AK3): 87.8% | 21c Remaining activity, percent of control [%] (FER): 101.7% | 21c Remaining activity, percent of control [%] (INSR): 98.0% | 21c Remaining activity, percent of control [%] (IRAK1): 101.8% | 21c Remaining activity, percent of control [%] (JAK2): 96.2% | 21c Remaining activity, percent of control [%] (MAP3K10): 94.4% | 21c Remaining activity, percent of control [%] (MEKK3): 105.8% | 21c Remaining activity, percent of control [%] (MLK4): 99.1% | 21c Remaining activity, percent of control [%] (PDGFRa): 102.0% | 21c Remaining activity, percent of control [%] (PKCe): 86.5% | 21c Remaining activity, percent of control [%] (PRKG1): 94.8% | 21c Remaining activity, percent of control [%] (SYK): 99.7% | 21c Remaining activity, percent of control [%] (TAOK2): 93.6% | 21c Remaining activity, percent of control [%] (TAOK3): 102.4% | 21c Remaining activity, percent of control [%] (VRK2): 96.9% | 21c Remaining activity, percent of control [%] (WNK2): 94.8% | 21c Remaining activity, percent of control [%] (ZAK): 82.9% | 21c Remaining activity, percent of control [%] (p38a): 92.7% | 21c Remaining activity, percent of control [%] (p38b): 92.9%
